The text below walks through data of BindingDB's records for doi:10.7270/Q2P55M4P (Burnham Center For Chemical Genomics, 2013).

In general, EC50 refers to the concentration giving half of the maximal effect. A lower EC50 goes with a more potent agent.

Each structure is given as a SMILES string. Where only a bound is given, the exact number is not on record here.

For this test, the target named is Tumor necrosis factor receptor superfamily member 10B (Homo sapiens, UniProt O14763).
Tumor necrosis factor receptor superfamily member 10B, sequence (O14763 whole entry): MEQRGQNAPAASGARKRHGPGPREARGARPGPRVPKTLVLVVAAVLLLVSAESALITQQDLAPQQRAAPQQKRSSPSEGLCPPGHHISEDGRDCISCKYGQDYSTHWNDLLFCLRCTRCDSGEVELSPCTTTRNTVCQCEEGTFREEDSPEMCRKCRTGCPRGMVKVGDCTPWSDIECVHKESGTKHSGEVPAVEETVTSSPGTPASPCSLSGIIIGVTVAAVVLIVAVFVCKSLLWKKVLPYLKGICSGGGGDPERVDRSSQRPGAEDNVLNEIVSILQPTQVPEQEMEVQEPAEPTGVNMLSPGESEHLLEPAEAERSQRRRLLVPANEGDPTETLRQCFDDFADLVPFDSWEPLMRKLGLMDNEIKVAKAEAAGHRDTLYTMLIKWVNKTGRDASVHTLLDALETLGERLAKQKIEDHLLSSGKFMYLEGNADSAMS

Molecule `CN(C)c1ccc(N=CCC(=O)c2ccco2)cc1` yielded an EC50 of 7.62 µM.

With `O=c1c2ccccc2nc2c3ccccc3cnn12`, the EC50 was over 12.5 µM.

For `Cc1ccc(N=CC(C(=O)c2cccs2)C(=O)C(F)(F)F)cc1` (stereo unspecified), the EC50 amounted to 1.87 µM.

As to `CCOC(=O)C(c1nc2ccccc2[nH]1)n1c(-c2cccnc2)nc2ccccc21` (stereo unspecified) [2-(1,3-dihydrobenzimidazol-2-ylidene)-2-[2-(3-pyridinyl)-1-benzimidazolyl]acetic acid ethyl ester], the response was half-maximal at 10.5 µM (EC50).

Molecule `Cc1cc(N=NCc2ccccc2)nc(NCc2ccccc2)n1` [6-methyl-N2-(phenylmethyl)-N4-[(E)-(phenylmethylidene)amino]pyrimidine-2,4-diamine] came in with an EC50 of over 12.5 µM.

On to `O=C(Cc1ccc2ccccc2n1)c1ccc(O)cc1O` [(2Z)-1-(2,4-dihydroxyphenyl)-2-(1H-quinolin-2-ylidene)ethanone], for which the EC50 was over 12.5 µM.

The molecule `COc1cccc(N=CCC(=O)c2ccc(Cl)cc2)c1` [(E)-1-(4-chlorophenyl)-3-(3-methoxyanilino)-2-propen-1-one] came in with an EC50 of 10.3 µM.

`O=c1[nH]c(N=NCc2ccc3c(c2)OCO3)nc2ccccc12` [MLS000700888] gave an EC50 of 10.9 µM.

`COc1ccc(C(C)N=Nc2nncc3ccccc23)cc1` (stereo unspecified) [N-[(E)-1-(4-methoxyphenyl)ethylideneamino]-1-phthalazinamine] returned an EC50 of over 12.5 µM.

On to `COc1ccc(CN=Nc2nc3ccccc3c(=O)n2-c2ccccc2)cc1OC` [SMR000174011], for which the response was half-maximal at 8.6 µM (EC50).

Molecule `CCOC(=O)c1ccc(N=CCC(=O)c2ccco2)cc1` [ethyl 4-[[(E)-3-(furan-2-yl)-3-oxoprop-1-enyl]amino]benzoate] showed an EC50 of over 12.5 µM.
